The structures appear in SMILES notation.

For assay [1], the system named is IDO1 gene expression in THP-1 cells. The assay can be described thus: Induction of IDO1 in THP-1 cells (RT-qPCR). It counts as cell-based, human. The settings on record: 96 hours; for concentration at which the highest level of IDO induction was observed: tested 0.1-10 micromolar; for increase of IDO1 gene expression (maximum over tested concentrations): compound alone. On the procedure:
THP-1 cells were harvested from appropriate number of T75 flasks. Cells were counted in a Bürker chamber, stained with 0.4% Trypan Blue. The appropriate number of cells for each experiment were transferred to a new tube and centrifuged at 1200 rpm, 5 min at room temperature (RT). The supernatant was discarded and fresh RPMI with 5% FBS were added to get a cell concentration of 2×10^5 cells/mL. The compound was added to the five separate wells in 6-well plates such that five different final concentrations were obtained after adding the cells. A control was added to one well in the 6-well plate to which cells were added. 1×10^6 cells per well were seeded out to achieve a total volume of 5 mL per well. The cells were incubated at 37° C. in 5% CO2 for 96 hours. After 96 hours the assay was stopped and the cells were lysed for the isolation of RNA.
Total RNA was extracted from THP-1 cells using the RNA RNeasy Mini extraction kit (Qiagen), according to the manufacturer's instructions. A SuperScript® VILO™ RT-kit (Thermo Fisher) was used to reverse transcribe 1 μg of total RNA to cDNA and qPCR was performed. The primers used for amplification of the human IDO1 gene were 5′-[…]-3′ (forward; SEQ ID No. 1) and 5′-[…]-3′ (reverse; SEQ ID No. 2). The primers used for amplification of the endogenous reference gene for human HPRT1 were 5′-[…]-3′ (forward; SEQ ID No. 3) and 5′-[…]-3′ (reverse; SEQ ID No. 4). In brief, RT-qPCR was performed in 20 μl reaction, consisting 10 μl PowerUp SYBR Green Master Mix, 0.5 μM of each primer, 4 μl diluted cDNA for amplification of IDO1 and 1.5 μl diluted cDNA for amplification of HPRT1. An iCycler iQ real-time detection system (Stratagene, Mx3000P, La Jolla, Calif., USA) with the following thermal profile: UDG incubation at 50° C. for 2 min, then denaturation at 95° C. for 5 min, followed by 45 cycles at 94° C. for 15 s, 58° C. for 30 s, and 60° C. for 30 s, was used to perform thermocycling and real-time detection of PCR products. After amplification a melting curve analysis was performed. The RT-qPCR experiments were always run in triplicate. IDO1 was normalised to the geometric means of two HPRT1 reference gene, using the ΔCt method. Within-group comparisons were normalized to one control sample, using the ΔΔCt method.
Background: Quantitative PCR measures a nucleic acid by following its amplification.

The test system of assay [2] is collagen-induced arthritis in DBA/1 mice. As to the kind of experiment: Treatment of collagen-induced arthritis in vivo. The settings on record: 1 mg/kg for 4 days from day of arthritis onset, scored 10 days, vs vehicle (FIG. 3, P<0.05). As to the method:
DBA/1 mice were immunized with bovine type II collagen emulsified in complete Freund's adjuvant. The mice were treated with decitabine (1 mg/kg) for 4 days, starting on the day of arthritis onset. Treatment was then stopped. Negative controls received vehicle alone. Clinical scores were monitored for 10 days following onset of arthritis. A clinical scoring system was used as follows. Arthritis severity was scored by an experienced non-blinded investigator as follows: 0=normal, 1=slight swelling and/or erythema, 2=pronounced swelling, 3=ankylosis. All four limbs were scored, giving a maximum possible score of 12 per animal.

The test system of the next assay is naïve CD4+ CD25− T cells. As to the kind of experiment: Conversion of CD4+CD25− T cells into CD4+FoxP3+ Tregs in vitro. The assay is classed as cell-based. On the procedure:
To assess the effect of decitabine on the generation of Tregs, naïve CD4+ CD25− T cells were cultured with mitomycin C treated APCs plus IL-2, TGFβ and anti-CD3 in the presence or absence of decitabine and numbers of CD4^+FoxP3^+ Tregs were determined by FACS after 72 h. The RNA was isolated from cell lysate, and reverse transcribed to cDNA for RT-qPCR analysis using Taqman primer probes. Expression of genes encoding Foxp3 was normalized to HPRT expression and was calibrated relative to vehicle group.

Turning to `Nc1ncn([C@@H]2O[C@H](CO)[C@@H](O)[C@H]2O)c(=O)n1` [azacytidine, 4-Amino-1-(β-D-ribofuranosyl)-1,3,5-triazin-2(1H)-one], the “concentration at which the highest level of IDO induction was observed” value in assay [1] is 1 µM. Further, the “IDO1 expression (fold change)” value is reported as 0.5 fold change in assay [1] (azacytidine 0.1 micromolar, vs H2O:HAc control); 1.2 fold change in assay [1] (azacytidine 0.3 micromolar, vs H2O:HAc control); 23 fold change in assay [1] (azacytidine 1 micromolar, vs H2O:HAc control); 6 fold change in assay [1] (azacytidine 3 micromolar, vs H2O:HAc control); 8.6 fold change in assay [1] (azacytidine 10 micromolar, vs H2O:HAc control). Further, in assay [1] (0.1-10 micromolar), the “increase of IDO1 gene expression (maximum over tested concentrations)” value is reported as “up to 23 fold”.
`Nc1ncn([C@H]2C[C@H](O)[C@@H](CO)O2)c(=O)n1` [decitabine, 4-Amino-1-(2-deoxy-β-D-ribofuranosyl)-1,3,5-triazin-2(1H)-one]: in assay [1] (0.1-10 micromolar), the “dose dependence of IDO1 gene expression” value is on record as “a dose-related response was observed”. Moreover, the “concentration at which the highest level of IDO induction was observed” value in assay [1] was 10 µM. The “increase of IDO1 gene expression (maximum over tested concentrations)” value in assay [1] (0.1-10 micromolar) is “up to 101 fold”. Moreover, the “IDO1 expression (fold change)” value in assay [1] (decitabine 0.1 micromolar, vs DMSO control) worked out at 6 fold change; in assay [1] (decitabine 0.3 micromolar, vs DMSO control) it was 16.4 fold change; in assay [1] (decitabine 1 micromolar, vs DMSO control), 40 fold change; in assay [1] (decitabine 3 micromolar, vs DMSO control), 87 fold change; in assay [1] (decitabine 10 micromolar, vs DMSO control), 101 fold change. Also, in assay [2], the “disease severity (mean clinical score)” value was “successful in reducing disease severity”. Also, the “relative expression of the Foxp3 gene (RT-qPCR)” value in the assay on naïve CD4+ CD25− T cells (normalized to HPRT, relative to vehicle group, vs control "nil" (FIG. 4C)) is recorded as “increased in a dose-dependent manner”. Besides, in the assay on naïve CD4+ CD25− T cells (with mitomycin C treated APCs, IL-2, TGFβ, anti-CD3, after 72 h, vs control "nil" (FIG. 4B)), the “frequencies of CD4+FoxP3+ Tregs (FACS)” value is listed as “increased in a dose-dependent manner”.

The record behind these values is patent US20190201431A1, “EX VIVO METHODS OF INDUCING IDO EXPRESSION IN ANTIGEN PRESENTING CELLS USING A COMPOUND SELECTED FROM THE GROUP CONSISTING OF AZACYTIDINE, AND DECITABINE” (IDOGEN AB, priority 2016, published 2019).
